Laboratory results published in US9993478B2, “1-pyrazolyl-3-(4-((2-anilinopyrimidin-4-yl) oxy) napththalen-1-yl) ureas as P38 MAP knase inhibitors” (Respivert Ltd., priority 2011, dated 2018).

System: d-U937 cells
Assay: Cell viability: MTT assay
Type: cell-based, human
Conditions: 1 μg/mL
Procedure: Differentiated U937 cells were pre-incubated with each test compound (final concentration 1 μg/mL or 10 μg/mL in 200 μL media indicated below) under two protocols: the first for 4 hr in 5% FCS RPMI1640 media and the second in 10% FCS RPMI1640 media for 24 h. The supernatant was replaced with new media (200 μL) and MTT stock solution (10 μL, 5 mg/mL) was added to each well. After incubation for 1 hr the media were removed, DMSO (200 μL) was added to each well and the plates were shaken lightly for 1 hr prior to reading the absorbance at 550 nm. The percentage loss of cell viability was calculated for each well relative to vehicle (0.5% DMSO) treatment. Consequently an apparent increase in cell viability for drug treatment relative to vehicle is tabulated as a negative percentage.

## CC(C)(C)c1cc(NC(=O)Nc2ccc(Oc3ccnc(Nc4ccccc4)n3)c3ccccc23)n(-c2ccc(O)cc2)n1 [Example 3, 1-(3-(tert-butyl)-1-(4-hydroxyphenyl)-1H-pyrazol-5-yl)-3-(4-((2-(phenylamino)pyrimidin-4-yl)oxy)naphthalen-1-yl)urea]
  MTT Assay Cell viability at time point in d-U937 Cells 4 h: −ve (−ve and +ve indicate the value is below and above respectively, the no significant effect threshold defined as 30% inhibition at 1 μg/mL at the time point indicated)
  MTT Assay Cell viability at time point in d-U937 Cells 24 h: −ve (−ve and +ve indicate the value is below and above respectively, the no significant effect threshold defined as 30% inhibition at 1 μg/mL at the time point indicated)

## Cc1ccc(-n2nc(C(C)(C)C)cc2NC(=O)Nc2ccc(Oc3ccnc(Nc4ccccc4F)n3)c3ccccc23)cc1 [Example 4, 1-(3-(tert-butyl)-1-(p-tolyl)-1H-pyrazol-5-yl)-3-(4-((2-((2-fluorophenyl)amino)pyrimidin-4-yl)oxy)naphthalen-1-yl)urea]
  MTT Assay Cell viability at time point in d-U937 Cells 4 h: −ve (−ve and +ve indicate the value is below and above respectively, the no significant effect threshold defined as 30% inhibition at 1 μg/mL at the time point indicated)
  MTT Assay Cell viability at time point in d-U937 Cells 24 h: −ve (−ve and +ve indicate the value is below and above respectively, the no significant effect threshold defined as 30% inhibition at 1 μg/mL at the time point indicated)

## COc1ccccc1Nc1nccc(Oc2ccc(NC(=O)Nc3cc(C(C)(C)C)nn3-c3ccc(C)cc3)c3ccccc23)n1 [Example 5, 1-(3-(tert-butyl)-1-(p-tolyl)-1H-pyrazol-5-yl)-3-(4-((2-((2-methoxyphenyl)amino)pyrimidin-4-yl)oxy)naphthalen-1-yl)urea]
  MTT Assay Cell viability at time point in d-U937 Cells 4 h: −ve (−ve and +ve indicate the value is below and above respectively, the no significant effect threshold defined as 30% inhibition at 1 μg/mL at the time point indicated)
  MTT Assay Cell viability at time point in d-U937 Cells 24 h: −ve (−ve and +ve indicate the value is below and above respectively, the no significant effect threshold defined as 30% inhibition at 1 μg/mL at the time point indicated)

## Cc1ccc(-n2nc(C(C)(C)C)cc2NC(=O)Nc2ccc(Oc3ccnc(Nc4ccccc4Cl)n3)c3ccccc23)cc1 [Example 6, 1-(3-(tert-butyl)-1-(p-tolyl)-1H-pyrazol-5-yl)-3-(4-((2-((2-chlorophenyl)amino)pyrimidin-4-yl)oxy)naphthalen-1-yl)urea]
  MTT Assay Cell viability at time point in d-U937 Cells 4 h: −ve (−ve and +ve indicate the value is below and above respectively, the no significant effect threshold defined as 30% inhibition at 1 μg/mL at the time point indicated)
  MTT Assay Cell viability at time point in d-U937 Cells 24 h: −ve (−ve and +ve indicate the value is below and above respectively, the no significant effect threshold defined as 30% inhibition at 1 μg/mL at the time point indicated)

## COc1ccc(-n2nc(C(C)(C)C)cc2NC(=O)Nc2ccc(Oc3ccnc(Nc4ccccc4)n3)c3ccccc23)cc1 [Example 7, 1-(3-(tert-butyl)-1-(4-methoxyphenyl)-1H-pyrazol-5-yl)-3-(4-((2-(phenylamino)pyrimidin-4-yl)oxy)naphthalen-1-yl)urea]
  MTT Assay Cell viability at time point in d-U937 Cells 4 h: −ve (−ve and +ve indicate the value is below and above respectively, the no significant effect threshold defined as 30% inhibition at 1 μg/mL at the time point indicated)
  MTT Assay Cell viability at time point in d-U937 Cells 24 h: −ve (−ve and +ve indicate the value is below and above respectively, the no significant effect threshold defined as 30% inhibition at 1 μg/mL at the time point indicated)

## COc1ccc(Nc2nccc(Oc3ccc(NC(=O)Nc4cc(C(C)(C)C)nn4-c4ccc(C)cc4)c4ccccc34)n2)c(OC)c1 [Example 8, 1-(3-(tert-butyl)-1-(p-tolyl)-1H-pyrazol-5-yl)-3-(4-((2-((2,4-dimethoxyphenyl)amino)pyrimidin-4-yl)oxy)naphthalen-1-yl)urea]
  MTT Assay Cell viability at time point in d-U937 Cells 4 h: −ve (−ve and +ve indicate the value is below and above respectively, the no significant effect threshold defined as 30% inhibition at 1 μg/mL at the time point indicated)
  MTT Assay Cell viability at time point in d-U937 Cells 24 h: −ve (−ve and +ve indicate the value is below and above respectively, the no significant effect threshold defined as 30% inhibition at 1 μg/mL at the time point indicated)

## Cc1ccc(-n2nc(C(C)(C)C)cc2NC(=O)Nc2ccc(Oc3ccnc(Nc4ccc(O)cc4)n3)c3ccccc23)cc1 [Example 9, 1-(3-(tert-butyl)-1-(p-tolyl)-1H-pyrazol-5-yl)-3-(4-((2-((4-hydroxyphenyl)amino)pyrimidin-4-yl)oxy)naphthalen-1-yl)urea]
  MTT Assay Cell viability at time point in d-U937 Cells 4 h: −ve (−ve and +ve indicate the value is below and above respectively, the no significant effect threshold defined as 30% inhibition at 1 μg/mL at the time point indicated)
  MTT Assay Cell viability at time point in d-U937 Cells 24 h: −ve (−ve and +ve indicate the value is below and above respectively, the no significant effect threshold defined as 30% inhibition at 1 μg/mL at the time point indicated)

## Cc1ccc(-n2nc(C(C)(C)C)cc2NC(=O)Nc2ccc(Oc3ccnc(Nc4cc(C)ccc4C)n3)c3ccccc23)cc1 [Example 10, 1-(3-(tert-butyl)-1-(p-tolyl)-1H-pyrazol-5-yl)-3-(4-((2-((2,5-dimethylphenyl)amino)pyrimidin-4-yl)oxy)naphthalen-1-yl)urea]
  MTT Assay Cell viability at time point in d-U937 Cells 4 h: −ve (−ve and +ve indicate the value is below and above respectively, the no significant effect threshold defined as 30% inhibition at 1 μg/mL at the time point indicated)
  MTT Assay Cell viability at time point in d-U937 Cells 24 h: −ve (−ve and +ve indicate the value is below and above respectively, the no significant effect threshold defined as 30% inhibition at 1 μg/mL at the time point indicated)

## Cc1ccc(Nc2nccc(Oc3ccc(NC(=O)Nc4cc(C(C)(C)C)nn4-c4ccc(C)cc4)c4ccccc34)n2)cc1 [Example 11, 1-(3-(tert-butyl)-1-(p-tolyl)-1H-pyrazol-5-yl)-3-(4-((2-(p-tolylamino)pyrimidin-4-yl)oxy)naphthalen-1-yl)urea]
  MTT Assay Cell viability at time point in d-U937 Cells 4 h: −ve (−ve and +ve indicate the value is below and above respectively, the no significant effect threshold defined as 30% inhibition at 1 μg/mL at the time point indicated)
  MTT Assay Cell viability at time point in d-U937 Cells 24 h: −ve (−ve and +ve indicate the value is below and above respectively, the no significant effect threshold defined as 30% inhibition at 1 μg/mL at the time point indicated)

## Cc1ccc(-n2nc(C(C)(C)C)cc2NC(=O)Nc2ccc(Oc3ccnc(Nc4cccc(C)c4)n3)c3ccccc23)cc1 [Example 12, 1-(3-(tert-butyl)-1-(p-tolyl)-1H-pyrazol-5-yl)-3-(4-((2-(m-tolylamino)pyrimidin-4-yl)oxy)naphthalen-1-yl)urea]
  MTT Assay Cell viability at time point in d-U937 Cells 4 h: −ve (−ve and +ve indicate the value is below and above respectively, the no significant effect threshold defined as 30% inhibition at 1 μg/mL at the time point indicated)
  MTT Assay Cell viability at time point in d-U937 Cells 24 h: −ve (−ve and +ve indicate the value is below and above respectively, the no significant effect threshold defined as 30% inhibition at 1 μg/mL at the time point indicated)

## Cc1ccc(-n2nc(C(C)(C)C)cc2NC(=O)Nc2ccc(Oc3ccnc(Nc4cccc(Cl)c4)n3)c3ccccc23)cc1 [Example 13, 1-(3-(tert-butyl)-1-(p-tolyl)-1H-pyrazol-5-yl)-3-(4-((2-((3-chlorophenyl)amino)pyrimidin-4-yl)oxy)naphthalen-1-yl)urea]
  MTT Assay Cell viability at time point in d-U937 Cells 4 h: −ve (−ve and +ve indicate the value is below and above respectively, the no significant effect threshold defined as 30% inhibition at 1 μg/mL at the time point indicated)
  MTT Assay Cell viability at time point in d-U937 Cells 24 h: −ve (−ve and +ve indicate the value is below and above respectively, the no significant effect threshold defined as 30% inhibition at 1 μg/mL at the time point indicated)

## COc1cccc(Nc2nccc(Oc3ccc(NC(=O)Nc4cc(C(C)(C)C)nn4-c4ccc(C)cc4)c4ccccc34)n2)c1 [Example 14, 1-(3-(tert-butyl)-1-(p-tolyl)-1H-pyrazol-5-yl)-3-(4-((2-((3-methoxyphenyl)amino)pyrimidin-4-yl)oxy)naphthalen-1-yl)urea]
  MTT Assay Cell viability at time point in d-U937 Cells 4 h: −ve (−ve and +ve indicate the value is below and above respectively, the no significant effect threshold defined as 30% inhibition at 1 μg/mL at the time point indicated)
  MTT Assay Cell viability at time point in d-U937 Cells 24 h: −ve (−ve and +ve indicate the value is below and above respectively, the no significant effect threshold defined as 30% inhibition at 1 μg/mL at the time point indicated)

## Cc1ccc(-n2nc(C(C)(C)C)cc2NC(=O)Nc2ccc(Oc3ccnc(Nc4cccc(F)c4)n3)c3ccccc23)cc1 [Example 15, 1-(3-(tert-butyl)-1-(p-tolyl)-1H-pyrazol-5-yl)-3-(4-((2-((3-fluorophenyl)amino)pyrimidin-4-yl)oxy)naphthalen-1-yl)urea]
  MTT Assay Cell viability at time point in d-U937 Cells 4 h: −ve (−ve and +ve indicate the value is below and above respectively, the no significant effect threshold defined as 30% inhibition at 1 μg/mL at the time point indicated)
  MTT Assay Cell viability at time point in d-U937 Cells 24 h: −ve (−ve and +ve indicate the value is below and above respectively, the no significant effect threshold defined as 30% inhibition at 1 μg/mL at the time point indicated)

## Cc1ccc(-n2nc(C(C)(C)C)cc2NC(=O)Nc2ccc(Oc3ccnc(Nc4ccc(Cl)cc4)n3)c3ccccc23)cc1 [Example 16, 1-(3-(tert-butyl)-1-(p-tolyl)-1H-pyrazol-5-yl)-3-(4-((2-((4-chlorophenyl)amino)pyrimidin-4-yl)oxy)naphthalen-1-yl)urea]
  MTT Assay Cell viability at time point in d-U937 Cells 4 h: −ve (−ve and +ve indicate the value is below and above respectively, the no significant effect threshold defined as 30% inhibition at 1 μg/mL at the time point indicated)
  MTT Assay Cell viability at time point in d-U937 Cells 24 h: −ve (−ve and +ve indicate the value is below and above respectively, the no significant effect threshold defined as 30% inhibition at 1 μg/mL at the time point indicated)
